Experimental data: patent publication US12240870B2, “Sequencing method for CAR T cell therapy” (Purdue Research Foundation, priority 2018, dated 2025)
pKd: −log10 of the molar value. “Also recorded” adds a separate entry of the source.

Experiments:
FRβ (CHO-β) = molecular target: T1, FRβ (CHO-β) (Homo sapiens, UniProt P14207); assay: 3H-EC17 cell-based radioligand binding assay on CHO-β cells; details: 2 h at 37° C.
T1 construct: expressed in transfected cells; host or cells: CHO (Chinese hamster ovary) cells
T1 sequence (P14207 17-230): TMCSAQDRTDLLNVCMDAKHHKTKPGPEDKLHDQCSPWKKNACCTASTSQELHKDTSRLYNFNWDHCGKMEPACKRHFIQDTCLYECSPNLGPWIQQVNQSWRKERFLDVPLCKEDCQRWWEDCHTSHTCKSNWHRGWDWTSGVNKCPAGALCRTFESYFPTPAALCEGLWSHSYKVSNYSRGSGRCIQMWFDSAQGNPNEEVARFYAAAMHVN
Experimental: FIG. 10, Panel A: Kd values of ^3H-EC17 uptake by FR+ target cells after a 2 hour incubation at 37° C. (calculated from the numbers of molecules bound per cell). Panel B: Kd value of ^3H^−EC17 uptake by E2-CAR-T cells (˜24% EGFRt+, ˜95:5 CD8/CD4 ratio) after a 2 hour incubation at room temperate (calculated from total cell-associated radioactivity, DPM).
The bispecific affinities of EC17 CAM (a CAM is equivalent to a “bridge” or the “compound” in this application) were assessed using ^3H-EC17 in cell-based radioligand binding assays. […] The whole cell lysates were quantitated for the level of radioactivity and cellular protein content by standard Pierce BCA protein assay. The number of ^3H-EC17 molecules bound per cell was calculated to determine the dissociation constants (Kd) for FRα (KB) and FRβ (CHO-β) respectively (FIG. 10).
The EC17 has already been tested in the clinic for immunotherapy and optical imaging purposes. To directly quantify its bispecific binding affinities, ^3H-EC17 was synthesized and radioligand binding assays were carried out on KB and CHO-β cell lines representing FRα+ and FRβ+ target cells, respectively, and on unsorted EGFRt CAR-T cells representing the effector cells.

MDA-MB-231 xenografts = assay: EC17 dose finding and CRS assessment in MDA-MB-231 tumor-bearing mice; type: in vivo; details: for human IFNγ in mouse plasma, fold over tumor-bearing mice with CAR-T cells only: all EC17 treated tumor cohorts
Text: Panel A: Schematic diagram to show dose scheduling of CAR-T cells (˜10 million “clinical facsimile”) plus EC17 dosed 3 different ways in NSG mice without or with pre-established MDA-MB-231 xenografts. Tumor-free mice received EC17 SIW 500 nmol/kg (2 doses on days 2 and 10). Tumor-bearing mice received EC17 as follows: EC17 SIW 500 nmol/kg (5 doses on days 2, 10, 17, 24, and 31), EC17 M/Th/M_Escalation-1 (repeats of 5/50/500 nmol/kg on Monday/Thursday/Monday followed by 1-week break, i,e. on days 2, 6, 10, 17, 20, 24, and 31), or EC17 M/Th/M_Escalation-2 (repeats of 5/100/1000 nmol/kg on Monday/Thursday/Monday followed by 1-week break, i.e. days 2, 6, 10, 17, 20, 24, and 31). Panel B: Systemic levels of human IFNγ on a log 2 scale detected in mouse plasma on days 11 and 12 after CAR-T cell injection in tumor-bearing versus tumor-free mice (i.e., ˜20 and 42 hours after the previous EC17 dose in all treated cohorts). Panel C: Circulating CAR-T cells in mouse blood identified as human CD3ε+ EGFRt+ events by flow cytometry and enumerated per 100 μL of whole blood. Panel D: Measurements of change in body weight and tumor volume in tumor-bearing mice that received CAR-T cells only or CAR-T cells plus EC17 dosed 3 different ways (dashed lines indicated each EC17 dose). n=5 mice per group. All data represent mean±s.e.m. * p<0.05 by one-way ANOVA test.
All animal care and use were performed according to NIH guidelines and in compliance with protocols approved by the Purdue University Animal Use and Care Committee. Female 4 to 5-week-old NOD/SCID gamma (NSG™) mice (stock number: 005557) were purchased from The Jackson Laboratory (Bar Harbor, ME). Unless specifically indicated, all animals were maintained on a FA-deficient diet (TestDiet, St. Louis, MO) upon arrival and throughout the study. To establish subcutaneous xenografts, MDA-MB-231 and HOS-FRα were implanted in the right flank region at 2.5×10^6 and 1×10^6 cells per animal, respectively. For intravenous xenografts, THP1-FRβ cells were inoculated at 5×10^6 cells per animal. Subcutaneous tumors were measured 2-3 times per week with a caliper and calculated using the ellipsoidal formula (length×width^2)/2. […] All animal doses (CAR-T cells, EC17, sodium fluorescein) were given intravenously.
In a therapeutic setting, EC17 CAM can be given before or after CAR-T cell injection. As described herein, the first dose of EC17 was administered 2-3.5 days after CAR-T cells to allow for an observation period of human T cells in tumor-bearing mice. Two batches of unsorted E2-CAR-T cells (23% or 39% EGFRt+, 1:1 CD4/CD8) were used for in vivo studies. On the day of infusion for each experiment (day 0), frozen CAR-T cells were quickly thawed at 37° C., washed 2× with Dulbecco's 1×PBS (pH 7.4) and injected into the tail vein at desired EGFRt+ E2-CAR-T cell doses. In addition, a small aliquot of CAR-T cells was analyzed by flow cytometry for CD4 to CD8 ratio and differentiation status of CAR-T cells. On the first day of EC17 dose, tumor-bearing animals were randomly assigned into groups according to their tumor sizes or the same number of days post intravenous implantation (i.e., THP1-FRβ).
For MDA-MB-231 studies, mice received a high dose (˜10 million) of a “clinical facsimile” of E2-CAR-T cells (˜39% EGFRt+) with a low differentiation profile (FIG. 9). Two days later, 3 different treatment regimens of EC17 were started at an average tumor size of ˜293±39 mm^3 (FIG. 12). The EC17 dosing was given once-a-week (SIW) at 500 nmol/kg on Mondays, or as escalating doses of 5, 50 or 100, and 500 or 1000 nmol/kg (i.e., 5/50/500 or 5/100/1000) on Monday, Thursday, and Monday with a 6-day break in-between cycles. Control mice were left untreated (received CAR-T cells but no EC17). For comparison, a cohort of tumor-free littermates also received the same number of CAR-T cells without or with EC17 SIW at 500 nmol/kg. […]

THP1-FRβ xenografts = assay: THP1-FRβ AML intravenous xenograft, E2 CAR-T cells plus EC17; type: in vivo, NSG mice

SMILES: Nc1nc2ncc(CNc3ccc(C(=O)N[C@@H](CCC(=O)NCCNC(=S)Nc4ccc(-c5c6ccc(=O)cc-6oc6cc(O)ccc56)c(C(=O)O)c4)C(=O)O)cc3)nc2c(=O)[nH]1 [EC17, FA-(γ)-ethylenediamine-FITC]
- pKd (FRβ (CHO-β)): 9.10
- cures (MDA-MB-231 xenografts; EC17-treated cohorts (SIW, Escalation-1, Escalation-2)): 100%
- body weight loss (MDA-MB-231 xenografts; EC17 Escalation-2 regimen 5/100/1000 nmol/kg M/Th/M): persistent body weight loss
- onset of CRS and body weight loss (MDA-MB-231 xenografts; EC17 SIW at 500 nmol/kg): earliest onset of CRS and body weight loss
- human IFNγ in mouse plasma, fold over tumor-bearing mice with CAR-T cells only (MDA-MB-231 xenografts; day 11 (~20 hours after previous EC17 dose), ~10 million CAR-T): ~30 ×
- human IFNγ in mouse plasma, fold over tumor-bearing mice with CAR-T cells only (MDA-MB-231 xenografts; day 12 (~42 hours after previous EC17 dose), ~10 million CAR-T): ~10 ×
- body weight loss (MDA-MB-231 xenografts; tumor-bearing cohorts, continued EC17 dosing independent of the regimen): significant body weight losses
- CRS grade (MDA-MB-231 xenografts; tumor-bearing cohorts, continued EC17 dosing independent of the regimen, ~10 million CAR-T): 2-3
- non-liver macrometastases (THP1-FRβ xenografts; EC17 M/Th/M dose escalation at a slow pace per cycle): failed to control the non-liver macrometastases
- body weight loss (THP1-FRβ xenografts; ~6 million E2 CAR-T + EC17 M/Th/M dose escalation, 6-day break (Cohort 5)): little body weight loss during the first two cycles; also recorded: very mild body weight loss
